Measurements published in patent publication US20030091975A1, “Multiple determinants for metabolic phenotypes” (priority 2001, published 2003).
Marks after values point to notes of the source that are not given here.

How the values were obtained:
Format in all cases: binding, rabbit
AAMU-Ab = assay: Competitive antigen ELISA, cross-reactivity of AAMU-Ab; conditions: for % Cross-Reaction AAMU-Ab: 0 = absence of inhibition or inhibition no higher than 40% at the highest concentration tested (5×10^−3 M)
Procedure: (§1) Buffers and water without additives are filtered through millipore filters and kept for 1 week. BSA, antibodies, Tween™ 20 and horse radish peroxidase conjugates are added to these buffers and water just prior to use. Urine samples are usually collected 4 hours after drinking a cup of coffee (instant or brewed with approximately 100 mg of caffeine per cup) and stored at −80° C. The urine samples are diluted 10 times with sodium phosphate buffer (620 mosm, pH 7.50) and are subsequently diluted with water to give concentrations of AAMU and 1X no higher than 3×10^−6 M in the ELISA. All the pipettings are done with an eight-channel pipette, except those of the antibody and sample solutions. Starting with the last well, 100 μL of a carbonate buffer (100 mM, pH 9.6) containing 2.5 μg mL-1 antibodies are added to each well. After 90 min. at room temperature, the wells are washed three times with […] of TPB: isotonic sodium phosphate buffer (310 mosm, pH 7.50) containing 0.05% Tween™ 20.
(§2) After the initial wash, unoccupied sites are blocked by incubation for 90 min. at room temperature with 100 μL TBP containing 3% BSA. The wells are washed four times with 100 μL TPB. […] The microplate is gently shaken with an orbital shaker at room temperature for 3-4 hours. The wells are washed three times with 100 μL TPB containing 1% BSA and three times with water containing 0.05% Tween ™ 20. To the washed plate is added 150 μL of a substrate buffer composed of citric acid (25 mM) and sodium phosphate dibasic buffer (50 mM, pH 5.0) containing 0.06% hydrogen peroxide and 0.04% o-phenylenediamine hydrochloride.
(§3) Buffers and water without additives were filtered through millipore filters and kept for 1 week. BSA, antibodies, Tween ™ 20 and horse radish peroxidase conjugates were added to these buffers and water just prior to use. Urine samples were usually collected 4 hours after drinking a cup of coffee (instant or brewed with approximately 100 mg of caffeine per cup) and stored at 80° C. They were diluted 10 times with sodium phosphate buffer (620 mosm, pH 7.50) and were subsequently diluted with water to give concentrations of AAMU and 1X no higher than 3×10^−6 M in the ELISA. All the pipettings were done with an eight-channel pipette, except those of the antibody and sample solutions. Starting with the last well, 100 μL of a carbonate buffer (100 mM, pH 9.6) containing 2.5 μg mL^−1 antibodies was pipetted. After 90 min. at room temperature, the wells were washed three times with 100 μL of TPB: isotonic sodium phosphate buffer (310 mosm, pH 7.50) containing 0.05% Tween™ 20.
(§4) After the initial wash, unoccupied sites were blocked by incubation for 90 min. at room temperature with 100 μL TBP containing 3% BSA. The wells were washed four times with 100 μL TPB. […] The microplate was gently shaken with an orbital shaker at room temperature for 3-4 hours. The wells were washed three times with 100 μL with TPB containing 1% BSA and three times with water containing 0.05% Tween™ 20. To the washed plate was added 150 μL of a substrate buffer composed of citric acid (25 mM) and sodium phosphate dibasic buffer (50 mM, pH 5.0) containing 0.06% hydrogen peroxide and 0.04% o-phenylenediamine hydrochloride. After 20 min. at room temperature with shaking, the reaction was stopped with 50 μL of 2.5 N HCl.
(§5) The cross reactivities of AAMU-Ab and 1X-Ab were tested using a wide variety of caffeine metabolites and structural analogs (Table 5 below).

1,7-DMU-Ab = assay: Competitive antigen ELISA, antibody specificity of 1,7-DMU-Ab; conditions: ideal antibody specificity result hypothesized; 0 = no inhibition or no higher than 40% at 5×10^−3 M
Procedure: (§6) BSA, antibodies, Tween™ 20 and horse radish peroxidase are added to buffers and water just prior to use. Urine samples are usually collected four hours after drinking a cup of coffee (instant or brewed with approximately 100 mg of caffeine per cup) and stored at −20° C. as 1-mL aliquots in 1.5-mL microtubes. For the ELISA, the urine samples are diluted with isotonic sodium phosphate buffer, pH 7.5 (310 mosM) to give concentrations of caffeine, 1.7-DMX and 1,7-DMU no higher than 3×10^−6 M in the microtiter plate wells. Wells of the ELISA plate are washed with a Nunc-Immuno wash 12 washer. Sixteen milliliters of a solution of 6.6 μg ml^−1 of isolated IgG antibodies is prepared in a 100 mM sodium carbonate buffer, pH 9.6, and 150 μL of this solution is pipetted in each well of a microtiter plate using a eight channel pipet (Brinkmann Transferpette™-8 50-200 μL) and 200 μL Flex tips from Brinkmann). After coating the wells with antibodies at 4° C. for 20 hours, the wells are washed 3 times with the isotonic sodium phosphate buffer containing 0.05% Tween™ 20 (IPBT) and properly drained by inverting the plate and absorbing the liquid on to a piece of paper towel. Thirty milliliters of a solution of a IPBT solution containing 1% BSA is prepared and 150 μL of this solution is pipetted in each well using a eight channel pipet (Brinkmann Transferpette ™-8 50-200 μL) and 200 μL yellow tips (Sarstedt yellow tips for P200 Gilson Pipetman). After 3 hours at room temperature, the wells are washed 3 times with IPBT solution and drained. Samples of 400 μL for determination of caffeine, 1,7-DMX and 1,7-DMU are prepared in 1.5-mL microtubes using Sarstedt yellow tips and a P200 Gilson Pipetman. Then, 200 μL of each sample are pipetted in duplicate in a Falcon 96-well microtest tissue culture plate according to the pattern shown in FIG. 22, using Sarstedt yellow tips and a P200 Gilson Pipetman. Using an eight channel pipet (Brinkmann Transferpette™-8 50-200 μL) and changing the tips of the eight channel pipet (200μL Flex tips from Brinkmann) at each row, 150 μL of samples are transferred in the corresponding wells of a 96-well ELISA microtiter plate coated with antibodies. After the addition of the samples, the microtiter plates are covered and left standing at room temperature for 2 h. While the plate is left standing the substrate buffer without the hydrogen peroxide and o-phenylenediamine hydrochloride is prepared (25 mM citric acid and 50 mM sodium phosphate dibasic buffer, pH 5.0). The microtiter plate is washed 3 times with the IPBT solution and 3 times with a 0.05% Tween™ 20 solution and drained. Then, 50 μL of hydrogen peroxide and 40 mg of o-phenylenediamine are added to the substrate buffer. One hundred fifty microliters (150 μL) of the substrate buffer solution is then added to each well using a eight channel pipet (Brinkmann Transferpette™-8 50-200 μL) and 200 μL Flex tips (Brinkmann). The microtiter plate is covered and shaken for 25-30 min at room temperature and the enzymatic reaction is stopped by adding 50 μL/well of a 2.5 N HCl solution using an eight channel pipet (Brinkmann Transferpette™-8 50-200 μL) and 200L Flex tips (Brinkmann).

1,7-DMX-Ab = assay: Competitive antigen ELISA, antibody specificity of 1,7-DMX-Ab; conditions: ideal antibody specificity result hypothesized; 0 = no inhibition or no higher than 40% at 5×10^−3 M
Procedure: as §6

1X-Ab = assay: Competitive antigen ELISA, cross-reactivity of 1X-Ab; conditions: for % Cross-Reaction 1X-Ab: 0 = absence of inhibition or inhibition no higher than 40% at the highest concentration tested (5×10^−3 M)
Procedure: as §1, §2, §3, §4, §5

Caffeine-Ab = assay: Competitive antigen ELISA, antibody specificity of caffeine-Ab; conditions: ideal antibody specificity result hypothesized; 0 = no inhibition or no higher than 40% at 5×10^−3 M
Procedure: as §6

SMILES | % Cross-Reaction AAMU-Ab (AAMU-Ab) | % Cross-reaction 1,7-DMU-Ab (1,7-DMU-Ab) [%] | % Cross-reaction 1,7-DMX-Ab (1,7-DMX-Ab) | % Cross-Reaction 1X-Ab (1X-Ab) [%] | % Cross-reaction Caffeine-Ab (Caffeine-Ab) [%] | IC50 (AAMU-Ab; read-out: concentration required for 50% inhibition in the competitive antigen ELISA, AAMU-Ab) [µM] | IC50 (1X-Ab; read-out: concentration required for 50% inhibition in the competitive antigen ELISA, 1X-Ab) [µM]
Cn1c(=O)[nH]c2[nH]c(=O)n(C)c2c1=O [1,7-Dimethyluric acid] | 0% | 100 | 0% | 0 | 0 | – | –
Nc1nc2nc[nH]c2c(=O)[nH]1 [Guanine] | 0% | 0 | 0% | 0 | 0 | – | –
CC(=O)Nc1c(N)[nH]c(=O)[nH]c1=O [5-Acetamino-6-amino-uracil] | 0.6% | 0 | 0% | 0 | 0 | – | –
Cn1c(=O)[nH]c2[nH]c(=O)[nH]c(=O)c21 [7-Methyluric acid] | – | 0 | 0% | – | 0 | – | –
O=c1[nH]c(=O)c2[nH]c(=O)[nH]c2[nH]1 [Uric acid] | 0% | 0 | 0% | 0 | 0 | – | –
Cn1cnc2[nH]c(=O)[nH]c(=O)c21 [7-Methyl Xanthine] | 0% | 0 | 0% | 0 | 0 | – | –
Cn1c(=O)c2c([nH]c(=O)n2C)n(C)c1=O [1,3,7-Trimethyluric acid] | – | 0 | 0% | – | 0 | – | –
Cc1nc2[nH]c(=O)[nH]c(=O)c2[nH]1 [8-Methyl Xanthine] | 0% | 0 | 0% | 0 | 0 | – | –
Cn1c(=O)[nH]c(=O)c2[nH]cnc21 [3-Methyl Xanthine] | 0% | 0 | 0% | 0 | 0 | – | –
Cn1cnc2c1c(=O)[nH]c(=O)n2C [3,7-Dimethyl Xanthine (Theobromine), 3,7-Dimethyl Xanthine] | 0% | 0 | 0% | 0 | 0 | – | –
Cn1c(=O)[nH]c(=O)c2[nH]c(=O)[nH]c21 [3-Methyluric acid] | – | 0 | 0% | – | 0 | – | –
Cn1c(=O)c2[nH]c(=O)[nH]c2n(C)c1=O [1,3-Dimethyluric acid] | – | 0 | 0% | – | 0 | – | –
O=c1[nH]c(=O)c2[nH]cnc2[nH]1 [Xanthine] | 0^a % | 0 | 0% | 0 | 0 | – | –
Cn1c(=O)c2c(ncn2C)n(C)c1=O [1,3,7-Trimethyl Xanthine (Caffeine), 1,3,7-Trimethyl Xanthine] | 0% | 0 | 0^a % | 0 | 100 | – | –
O=c1[nH]cnc2nc[nH]c12 [Hypoxanthine] | 0% | 0 | 0% | 0 | 0 | – | –
Cn1c(=O)[nH]c2ncn(C)c2c1=O [1,7-Dimethyl Xanthine (Paraxanthine), 1,7-Dimethyl Xanthine] | 0% | 0 | 100% | 0.5 | 0 | – | –
CC(=O)Nc1c(N)n(C)c(=O)[nH]c1=O [5-Acetamino-6-amino-1-methyluracil] | 100% | 0 | 0% | 0 | 0 | 1.5 | –
Cn1c(=O)[nH]c2[nH]c(=O)[nH]c2c1=O [1-Methyluric acid] | 0% | 0 | 0% | 11 | 0 | – | –
O=c1cc[nH]c(=O)[nH]1 [Uracil] | 0% | 0 | 0% | 0 | 0 | – | –
Cn1c(=O)[nH]c(=O)c2c1[nH]c(=O)n2C [3,7-Dimethyluric acid] | – | 0 | 0% | – | 0 | – | –
Cn1c(=O)[nH]c2nc[nH]c2c1=O [1-Methyl Xanthine (1X), 1-Methyl Xanthine] | 0% | 0 | 0% | 100 | 0 | – | 10
